Experimental data from US20140296216A1, “PYRIMIDO[4,5-D]PYRIMIDINYL COMPOUNDS, PHARMACEUTICAL COMPOSITIONS AND USES THEREOF” (GUANGZHOU INSTITUTE OF BIOMEDICINE AND HEALTH, CHINESE …, priority 2011, published 2014).
pIC50: −log10 of the molar value.

Key:
[1] = system: H1975 (lung cancer cells, EGFR L858R&T790M); test: Cell proliferation by MTT, H1975; assay type: cell-based; settings: Homo sapiens, NCI-H1975, read-out: H1975 50% inhibitory concentration (IC50), 72 h
EGFR T790M kinase = target: T1, EGFR T790M kinase (Homo sapiens, UniProt P00533, T790M); test: In vitro enzymatic activity assay (Z'-LYTE), EGFR T790M; assay type: biochemical; settings: Z'-LYTE FRET peptide assay; read-out: EGFRT790M kinase activity (IC50)
T1 construct: purchased invitrogen PV4803
Excerpt: (§1) In vitro enzymatic activity assay: using Z′-LYTE™ technology (detect fluorescence, coupled-enzyme format, based on the differential sensitivity of phosphorylated and non-phosphorylated peptides to proteolytic cleavage), based on FRET, using Z′ LYTE™ FRET peptide substrate, detect the activity of compounds against enzymatic. […] After one hour, site specific protease which can recognize and cleaves non-phosphorylated FRET-peptide. After another hour, using an excitation wavelength of 400 nm excites, then detect the […] at 445 nm and 520 nm.

EGFRWT = EGFRWT (Homo sapiens, UniProt P00533); test: In vitro enzymatic activity assay (Z'-LYTE), wild type EGFR; assay type: biochemical; settings: Z'-LYTE FRET peptide assay; read-out: EGFRWT kinase activity (IC50)
Excerpt: as §1

EGFRL858R + T790M = EGFRL858R + T790M (Homo sapiens, UniProt P00533, L858R/T790M); test: In vitro enzymatic activity assay (Z'-LYTE), EGFR L858R + T790M; assay type: biochemical; settings: Z'-LYTE FRET peptide assay; read-out: EGFRL858R + T790M kinase activity (IC50)
Excerpt: as §1

EGFRL858R = EGFRL858R (Homo sapiens, UniProt P00533, L858R); test: In vitro enzymatic activity assay (Z'-LYTE), EGFR L858R; assay type: biochemical; settings: Z'-LYTE FRET peptide assay; read-out: EGFRL858R kinase activity (IC50)
Excerpt: as §1

EGFRL861Q = EGFRL861Q (Homo sapiens, UniProt P00533, L861Q); test: In vitro enzymatic activity assay (Z'-LYTE), EGFR L861Q; assay type: biochemical; settings: Z'-LYTE FRET peptide assay; read-out: EGFRL861Q kinase activity (IC50)
Excerpt: as §1

[2] = system: HCC827 (lung cancer cells, EGFR E746-A750 deletion); test: Cell proliferation by MTT, HCC827; assay type: cell-based; settings: Homo sapiens, HCC827, read-out: HCC827 50% inhibitory concentration (IC50), 72 h
[3] = system: A431 (Human epidermal carcinoma, EGFR high expression); test: Cell proliferation by MTT, A431; assay type: cell-based; settings: A-431, read-out: A431 50% inhibitory concentration (IC50), 72 h

Chain of EGFRL858R (P00533 25-1210 L858R): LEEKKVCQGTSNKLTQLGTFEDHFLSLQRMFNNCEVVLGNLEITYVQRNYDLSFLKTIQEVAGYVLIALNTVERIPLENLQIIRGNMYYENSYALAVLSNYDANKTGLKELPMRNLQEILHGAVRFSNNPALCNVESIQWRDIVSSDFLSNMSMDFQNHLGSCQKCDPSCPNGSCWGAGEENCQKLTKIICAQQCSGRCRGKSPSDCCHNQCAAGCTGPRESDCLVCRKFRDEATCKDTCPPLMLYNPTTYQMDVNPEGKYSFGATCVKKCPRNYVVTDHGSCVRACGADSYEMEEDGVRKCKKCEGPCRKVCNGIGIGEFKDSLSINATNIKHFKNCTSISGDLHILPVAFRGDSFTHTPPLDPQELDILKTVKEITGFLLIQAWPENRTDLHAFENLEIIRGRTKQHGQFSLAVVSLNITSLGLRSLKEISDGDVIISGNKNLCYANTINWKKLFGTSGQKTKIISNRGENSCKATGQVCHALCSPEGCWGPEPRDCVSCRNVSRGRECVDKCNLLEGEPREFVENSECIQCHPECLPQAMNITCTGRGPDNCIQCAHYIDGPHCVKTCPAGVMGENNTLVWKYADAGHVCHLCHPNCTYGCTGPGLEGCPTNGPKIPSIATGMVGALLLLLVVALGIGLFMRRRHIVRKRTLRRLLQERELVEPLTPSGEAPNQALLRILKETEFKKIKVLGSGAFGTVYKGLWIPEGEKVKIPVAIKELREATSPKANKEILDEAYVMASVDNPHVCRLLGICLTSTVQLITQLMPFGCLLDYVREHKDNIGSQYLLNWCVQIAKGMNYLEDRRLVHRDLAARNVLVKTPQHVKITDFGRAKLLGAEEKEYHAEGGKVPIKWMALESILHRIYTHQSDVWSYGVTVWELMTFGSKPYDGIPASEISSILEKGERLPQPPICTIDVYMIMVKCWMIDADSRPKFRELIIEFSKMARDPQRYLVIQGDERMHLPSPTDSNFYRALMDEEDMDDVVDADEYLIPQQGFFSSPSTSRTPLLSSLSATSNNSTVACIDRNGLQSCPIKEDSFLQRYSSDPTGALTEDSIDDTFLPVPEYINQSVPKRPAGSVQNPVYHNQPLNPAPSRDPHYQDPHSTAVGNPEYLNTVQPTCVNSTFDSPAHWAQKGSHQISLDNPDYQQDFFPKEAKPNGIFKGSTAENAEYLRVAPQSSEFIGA
T1 sequence (P00533 25-1210 T790M): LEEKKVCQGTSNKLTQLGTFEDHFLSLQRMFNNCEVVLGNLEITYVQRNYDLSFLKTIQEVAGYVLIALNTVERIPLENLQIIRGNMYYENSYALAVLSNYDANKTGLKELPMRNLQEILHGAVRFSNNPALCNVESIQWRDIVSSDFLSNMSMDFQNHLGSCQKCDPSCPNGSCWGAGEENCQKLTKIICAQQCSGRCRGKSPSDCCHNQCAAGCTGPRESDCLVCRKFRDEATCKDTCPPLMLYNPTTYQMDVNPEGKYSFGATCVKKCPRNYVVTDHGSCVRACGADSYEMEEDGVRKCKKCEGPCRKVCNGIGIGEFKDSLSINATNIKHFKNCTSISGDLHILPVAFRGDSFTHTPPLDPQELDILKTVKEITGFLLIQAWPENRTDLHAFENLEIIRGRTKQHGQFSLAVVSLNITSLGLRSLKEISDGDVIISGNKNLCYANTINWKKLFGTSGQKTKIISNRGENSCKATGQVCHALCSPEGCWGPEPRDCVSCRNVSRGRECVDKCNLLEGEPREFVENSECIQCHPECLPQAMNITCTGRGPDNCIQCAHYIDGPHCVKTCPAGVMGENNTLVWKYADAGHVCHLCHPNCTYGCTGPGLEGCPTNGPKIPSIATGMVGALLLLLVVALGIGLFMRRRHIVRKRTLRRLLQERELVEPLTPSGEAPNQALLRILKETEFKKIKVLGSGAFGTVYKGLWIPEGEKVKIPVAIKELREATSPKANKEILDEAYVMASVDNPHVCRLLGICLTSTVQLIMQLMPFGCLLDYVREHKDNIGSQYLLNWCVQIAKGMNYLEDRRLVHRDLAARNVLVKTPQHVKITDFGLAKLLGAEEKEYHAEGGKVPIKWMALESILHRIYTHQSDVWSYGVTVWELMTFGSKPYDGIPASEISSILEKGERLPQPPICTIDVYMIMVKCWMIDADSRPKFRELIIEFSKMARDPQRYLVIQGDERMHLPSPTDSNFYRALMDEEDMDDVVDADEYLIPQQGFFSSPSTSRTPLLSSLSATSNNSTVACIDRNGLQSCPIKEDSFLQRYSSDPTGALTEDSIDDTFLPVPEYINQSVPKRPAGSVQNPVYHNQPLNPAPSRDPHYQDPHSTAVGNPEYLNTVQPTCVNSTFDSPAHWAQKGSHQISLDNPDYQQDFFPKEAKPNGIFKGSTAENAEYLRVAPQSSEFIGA
Chain of EGFRL858R + T790M (P00533 25-1210 T790M/L858R): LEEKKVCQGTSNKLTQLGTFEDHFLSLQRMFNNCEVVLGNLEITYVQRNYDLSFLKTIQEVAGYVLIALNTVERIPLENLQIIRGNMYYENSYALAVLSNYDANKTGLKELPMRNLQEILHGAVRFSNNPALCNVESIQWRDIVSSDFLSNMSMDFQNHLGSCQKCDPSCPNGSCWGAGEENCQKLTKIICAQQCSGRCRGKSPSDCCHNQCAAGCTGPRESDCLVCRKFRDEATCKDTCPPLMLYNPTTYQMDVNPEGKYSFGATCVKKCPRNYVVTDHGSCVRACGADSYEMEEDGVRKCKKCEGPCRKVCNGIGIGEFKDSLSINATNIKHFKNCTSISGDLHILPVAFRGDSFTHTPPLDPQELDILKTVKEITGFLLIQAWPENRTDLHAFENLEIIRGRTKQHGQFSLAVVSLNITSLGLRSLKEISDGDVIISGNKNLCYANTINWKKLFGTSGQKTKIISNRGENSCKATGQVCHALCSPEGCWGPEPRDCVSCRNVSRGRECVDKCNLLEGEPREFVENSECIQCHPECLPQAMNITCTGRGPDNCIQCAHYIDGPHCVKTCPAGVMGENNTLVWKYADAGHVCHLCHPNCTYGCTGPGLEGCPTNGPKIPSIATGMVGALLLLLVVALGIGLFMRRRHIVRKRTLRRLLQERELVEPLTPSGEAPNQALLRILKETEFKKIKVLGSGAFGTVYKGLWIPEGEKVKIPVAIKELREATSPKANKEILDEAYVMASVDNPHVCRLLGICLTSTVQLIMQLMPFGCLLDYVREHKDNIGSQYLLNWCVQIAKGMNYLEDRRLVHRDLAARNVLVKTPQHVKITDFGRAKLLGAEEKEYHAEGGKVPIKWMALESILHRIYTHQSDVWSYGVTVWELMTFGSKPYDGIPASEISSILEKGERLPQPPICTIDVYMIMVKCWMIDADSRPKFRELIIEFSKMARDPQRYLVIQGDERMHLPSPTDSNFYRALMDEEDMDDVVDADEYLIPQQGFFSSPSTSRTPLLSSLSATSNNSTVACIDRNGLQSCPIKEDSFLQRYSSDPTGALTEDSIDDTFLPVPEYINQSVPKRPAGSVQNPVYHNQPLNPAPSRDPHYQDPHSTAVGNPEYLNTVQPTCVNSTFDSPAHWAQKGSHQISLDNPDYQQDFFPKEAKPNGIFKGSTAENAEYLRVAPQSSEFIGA
Chain of EGFRL861Q (P00533 25-1210 L861Q): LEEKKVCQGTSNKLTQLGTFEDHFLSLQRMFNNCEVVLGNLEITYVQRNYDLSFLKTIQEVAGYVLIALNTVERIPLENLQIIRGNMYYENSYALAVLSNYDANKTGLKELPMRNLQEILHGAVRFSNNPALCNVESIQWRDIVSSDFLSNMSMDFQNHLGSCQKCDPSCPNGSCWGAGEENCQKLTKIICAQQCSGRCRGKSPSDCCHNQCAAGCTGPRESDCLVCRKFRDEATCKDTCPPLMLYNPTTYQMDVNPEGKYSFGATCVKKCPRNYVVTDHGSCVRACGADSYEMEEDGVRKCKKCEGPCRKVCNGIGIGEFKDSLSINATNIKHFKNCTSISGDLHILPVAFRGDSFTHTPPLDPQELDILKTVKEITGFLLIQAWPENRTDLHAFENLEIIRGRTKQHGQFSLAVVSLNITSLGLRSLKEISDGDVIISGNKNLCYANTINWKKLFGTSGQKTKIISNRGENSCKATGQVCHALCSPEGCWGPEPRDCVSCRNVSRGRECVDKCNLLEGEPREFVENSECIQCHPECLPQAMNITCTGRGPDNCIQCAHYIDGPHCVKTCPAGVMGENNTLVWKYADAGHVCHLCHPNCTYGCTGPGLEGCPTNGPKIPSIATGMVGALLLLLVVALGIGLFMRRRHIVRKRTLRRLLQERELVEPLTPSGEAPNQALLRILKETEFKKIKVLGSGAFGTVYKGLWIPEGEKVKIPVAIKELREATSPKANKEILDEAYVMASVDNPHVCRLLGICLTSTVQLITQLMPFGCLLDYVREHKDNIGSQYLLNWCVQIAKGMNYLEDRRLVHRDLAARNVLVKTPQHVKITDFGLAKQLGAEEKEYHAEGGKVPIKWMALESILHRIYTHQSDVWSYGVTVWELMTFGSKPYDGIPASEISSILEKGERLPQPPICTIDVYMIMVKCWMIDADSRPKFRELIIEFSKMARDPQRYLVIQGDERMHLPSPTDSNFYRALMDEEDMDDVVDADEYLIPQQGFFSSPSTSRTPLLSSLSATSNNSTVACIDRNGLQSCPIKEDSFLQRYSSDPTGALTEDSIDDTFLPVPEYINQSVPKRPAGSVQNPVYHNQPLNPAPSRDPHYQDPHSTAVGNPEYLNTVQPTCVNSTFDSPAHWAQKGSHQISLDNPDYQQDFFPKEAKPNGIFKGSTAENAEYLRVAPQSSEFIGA

C=CC(=O)Nc1cccc(N2C(=O)N(C)Cc3cnc(Nc4ccc(N5CCN(C(C)=O)CC5)cc4OC)nc32)c1 [C-EGF20, N-(3-(7-(4-(4-acetylpiperazin-1-yl)-2-methoxyphenylamino)-3-methyl-2-oxo-3,4-dihydropyrimido[4,5-d]pyrimidin-1(2H)-yl)phenyl)acrylamide]
pIC50 [1]: 6.84
pIC50 (EGFR T790M kinase): ≥ 8.00
pIC50 (EGFRWT): ≥ 8.00
pIC50 (EGFRL858R + T790M): ≥ 8.00
pIC50 (EGFRL858R): ≥ 8.00
pIC50 (EGFRL861Q): ≥ 8.00

C=CC(=O)Nc1cccc(N2C(=O)N(Cc3ccccc3)Cc3cnc(Nc4ccc(N5CCN(C)CC5)cc4OC)nc32)c1 [C-EGF29, N-(3-(3-benzyl-7-(2-methoxy-4-(4-methylpiperazin-1-yl)phenylamino)-2-oxo-3,4-dihydropyrimido[4,5-d]pyrimidin-1(2H)-yl)phenyl)acrylamide]
pIC50 (EGFR T790M kinase): ≥ 8.00
pIC50 (EGFRWT): ≥ 8.00
pIC50 (EGFRL858R + T790M): ≥ 8.00
pIC50 (EGFRL858R): ≥ 8.00
pIC50 (EGFRL861Q): ≥ 8.00

C=CC(=O)Nc1cccc(N2C(=O)N(c3ccc(OCc4ccccc4)cc3)Cc3cnc(Nc4ccc(N5CCN(C)CC5)cc4OC)nc32)c1 [C-EGF32, N-(3-(3-(4-(benzyloxy)phenyl)-7-(2-methoxy-4-(4-methylpiperazin-1-yl)phenylamino)-2-oxo-3,4-dihydropyrimido[4,5-d]pyrimidin-1(2H)-yl)phenyl)acrylamide]
pIC50 (EGFR T790M kinase): ≥ 8.00
pIC50 (EGFRWT): ≥ 8.00
pIC50 (EGFRL858R + T790M): ≥ 8.00
pIC50 (EGFRL858R): ≥ 8.00
pIC50 (EGFRL861Q): ≥ 8.00

C=CC(=O)Nc1cccc(N2C(=O)N(c3ccc(F)c(Cl)c3)Cc3cnc(Nc4ccc(N5CCN(C)CC5)cc4OC)nc32)c1 [C-EGF38, N-(3-(3-(3-chloro-4-fluorophenyl)-7-(2-methoxy-4-(4-methylpiperazin-1-yl)phenylamino)-2-oxo-3,4-dihydropyrimido[4,5-d]pyrimidin-1(2H)-yl)phenyl)acrylamide]
pIC50 (EGFR T790M kinase): ≥ 8.00
pIC50 (EGFRWT): ≥ 8.00
pIC50 (EGFRL858R + T790M): ≥ 8.00
pIC50 (EGFRL858R): ≥ 8.00
pIC50 (EGFRL861Q): ≥ 8.00

C=CC(=O)Nc1cccc(N2C(=O)N(c3cccc(Cl)c3)Cc3cnc(Nc4ccc(N5CCN(C)CC5)cc4OC)nc32)c1 [C-EGF35, N-(3-(3-(3-chlorophenyl)-7-(2-methoxy-4-(4-methylpiperazin-1-yl)phenylamino)-2-oxo-3,4-dihydropyrimido[4,5-d]pyrimidin-1(2H)-yl)phenyl)acrylamide]
pIC50 (EGFR T790M kinase): ≥ 8.00
pIC50 (EGFRWT): ≥ 8.00
pIC50 (EGFRL858R + T790M): ≥ 8.00
pIC50 (EGFRL858R): ≥ 8.00
pIC50 (EGFRL861Q): ≥ 8.00

C=CC(=O)Nc1cccc(N2C(=O)N(c3ccc(Oc4ccccc4)cc3)Cc3cnc(Nc4ccc(N5CCN(C)CC5)cc4OC)nc32)c1 [C-EGF31, N-(3-(7-(2-methoxy-4-(4-methylpiperazin-1-yl)phenylamino)-2-oxo-3-(4-phenoxyphenyl)-3,4-dihydropyrimido[4,5-d]pyrimidin-1(2H)-yl)phenyl)acrylamide]
pIC50 (EGFR T790M kinase): ≥ 8.00
pIC50 (EGFRWT): ≥ 8.00
pIC50 (EGFRL858R + T790M): ≥ 8.00
pIC50 (EGFRL858R): ≥ 8.00
pIC50 (EGFRL861Q): ≥ 8.00

C=CC(=O)Nc1cccc(N2C(=O)N(c3cccc4ccccc34)Cc3cnc(Nc4ccc(N5CCN(C)CC5)cc4OC)nc32)c1 [C-EGF28, N-(3-(7-(2-methoxy-4-(4-methylpiperazin-1-yl)phenylamino)-3-(naphthalen-1-yl)-2-oxo-3,4-dihydropyrimido[4,5-d]pyrimidin-1(2H)-yl)phenyl)acrylamide]
pIC50 [1]: 7.52
pIC50 (EGFR T790M kinase): ≥ 8.00
pIC50 [2]: 8.22
pIC50 (EGFRWT): ≥ 8.00
pIC50 (EGFRL858R + T790M): ≥ 8.00
pIC50 (EGFRL858R): ≥ 8.00
pIC50 (EGFRL861Q): ≥ 8.00

C=CC(=O)Nc1cccc(N2C(=O)N(c3ccccc3C)Cc3cnc(Nc4ccc(N5CCN(C)CC5)cc4OC)nc32)c1 [C-EGF39, N-(3-(7-(2-methoxy-4-(4-methylpiperazin-1-yl)phenylamino)-2-oxo-3-o-tolyl-3,4-dihydropyrimido[4,5-d]pyrimidin-1(2H)-yl)phenyl)acrylamide]
pIC50 (EGFR T790M kinase): ≥ 8.00
pIC50 (EGFRWT): ≥ 8.00
pIC50 (EGFRL858R + T790M): ≥ 8.00
pIC50 (EGFRL858R): ≥ 8.00
pIC50 (EGFRL861Q): ≥ 8.00

C=CC(=O)Nc1cccc(N2C(=O)N(c3cccc([N+](=O)[O-])c3)Cc3cnc(Nc4ccc(N5CCN(C)CC5)cc4OC)nc32)c1 [C-EGF37, N-(3-(7-(2-methoxy-4-(4-methylpiperazin-1-yl)phenylamino)-3-(3-nitrophenyl)-2-oxo-3,4-dihydropyrimido[4,5-d]pyrimidin-1(2H)-yl)phenyl)acrylamide]
pIC50 (EGFR T790M kinase): 7.00 to 8.00
pIC50 (EGFRWT): ≥ 8.00
pIC50 (EGFRL858R + T790M): 7.00 to 8.00
pIC50 (EGFRL858R): ≥ 8.00
pIC50 (EGFRL861Q): ≥ 8.00

C=CS(=O)(=O)Nc1cccc(N2C(=O)N(C)Cc3cnc(Nc4ccc(N5CCN(C)CC5)cc4OC)nc32)c1 [C-EGF40, N-(3-(7-(2-methoxy-4-(4-methylpiperazin-1-yl)phenylamino)-3-methyl-2-oxo-3,4-dihydropyrimido[4,5-d]pyrimidin-1(2H)-yl)phenyl)ethenesulfonamide]
pIC50 (EGFR T790M kinase): 7.00 to 8.00
pIC50 (EGFRWT): ≥ 8.00
pIC50 (EGFRL858R + T790M): 7.00 to 8.00
pIC50 (EGFRL858R): ≥ 8.00
pIC50 (EGFRL861Q): ≥ 8.00

C=CC(=O)Nc1cccc(N2C(=O)N(c3ccc(-c4ccccc4)cc3)Cc3cnc(Nc4ccc(N5CCN(C)CC5)cc4OC)nc32)c1 [C-EGF30, N-(3-(3-(biphenyl-4-yl)-7-(2-methoxy-4-(4-methylpiperazin-1-yl)phenylamino)-2-oxo-3,4-dihydropyrimido[4,5-d]pyrimidin-1(2H)-yl)phenyl)acrylamide]
pIC50 (EGFR T790M kinase): ≥ 8.00
pIC50 (EGFRWT): ≥ 8.00
pIC50 (EGFRL858R + T790M): ≥ 8.00
pIC50 (EGFRL858R): ≥ 8.00
pIC50 (EGFRL861Q): ≥ 8.00

C=CC(=O)Nc1cccc(N2C(=O)N(c3cccc(C#N)c3)Cc3cnc(Nc4ccc(N5CCN(C)CC5)cc4OC)nc32)c1 [C-EGF36, N-(3-(3-(3-cyanophenyl)-7-(2-methoxy-4-(4-methylpiperazin-1-yl)phenylamino)-2-oxo-3,4-dihydropyrimido[4,5-d]pyrimidin-1(2H)-yl)phenyl)acrylamide]
pIC50 (EGFR T790M kinase): ≥ 8.00
pIC50 (EGFRWT): ≥ 8.00
pIC50 (EGFRL858R + T790M): ≥ 8.00
pIC50 (EGFRL858R): ≥ 8.00
pIC50 (EGFRL861Q): ≥ 8.00

CCC(=O)Nc1cccc(N2C(=O)N(C)Cc3cnc(Nc4ccc(N5CCN(C)CC5)cc4OC)nc32)c1 [C-EGF34, N-(3-(7-(2-methoxy-4-(4-methylpiperazin-1-yl)phenylamino)-3-methyl-2-oxo-3,4-dihydropyrimido[4,5-d]pyrimidin-1(2H)-yl)phenyl)propionamide]
pIC50 [3]: < 4.52
pIC50 [1]: < 4.70
pIC50 (EGFR T790M kinase): 5.00 to 6.00
pIC50 (EGFRWT): 5.00 to 6.00
pIC50 (EGFRL858R + T790M): 5.00 to 6.00
pIC50 (EGFRL858R): 5.00 to 6.00
pIC50 (EGFRL861Q): 5.00 to 6.00

C=CC(=O)Nc1ccc(F)c(N2C(=O)N(Cc3ccccc3)Cc3cnc(Nc4ccc(N5CCN(C)CC5)cc4OC)nc32)c1 [C-EGF41, N-(3-(3-benzyl-7-(2-methoxy-4-(4-methylpiperazin-1-yl)phenylamino)-2-oxo-3,4-dihydropyrimido[4,5-d]pyrimidin-1(2H)-yl)-4-fluorophenyl)acrylamide]
pIC50 (EGFR T790M kinase): ≥ 8.00
pIC50 (EGFRWT): ≥ 8.00
pIC50 (EGFRL858R + T790M): ≥ 8.00
pIC50 (EGFRL858R): ≥ 8.00
pIC50 (EGFRL861Q): ≥ 8.00

C=CC(=O)Nc1cccc(N2C(=O)N(c3ccccc3)Cc3cnc(Nc4ccc(N5CCN(C)CC5)cc4OC)nc32)c1 [C-EGF27, N-(3-(7-(2-methoxy-4-(4-methylpiperazin-1-yl)phenylamino)-2-oxo-3-phenyl-3,4-dihydropyrimido[4,5-d]pyrimidin-1(2H)-yl)phenyl)acrylamide]
pIC50 (EGFR T790M kinase): ≥ 8.00
pIC50 (EGFRWT): ≥ 8.00
pIC50 (EGFRL858R + T790M): ≥ 8.00
pIC50 (EGFRL858R): ≥ 8.00
pIC50 (EGFRL861Q): ≥ 8.00

C=CC(=O)Nc1cccc(N2C(=O)N(C)Cc3cnc(Nc4ccc(N5CC[C@H](N(C)C)C5)cc4OC)nc32)c1 [C-EGF16, (S)—N-(3-(7-(4-(3-(dimethylamino)pyrrolidin-1-yl)-2-methoxyphenylamino)-3-methyl-2-oxo-3,4-dihydropyrimido[4,5-d]pyrimidin-1(2H)-yl)phenyl)acrylamide]
pIC50 [1]: 6.42
pIC50 (EGFR T790M kinase): 7.00 to 8.00
pIC50 (EGFRWT): ≥ 8.00
pIC50 (EGFRL858R + T790M): ≥ 8.00
pIC50 (EGFRL858R): ≥ 8.00
pIC50 (EGFRL861Q): ≥ 8.00

C=CC(=O)Nc1cccc(N2C(=O)N(C)Cc3cnc(Nc4ccc(N5CC[C@@H](N(C)C)C5)cc4OC)nc32)c1 [C-EGF15, (R)—N-(3-(7-(4-(3-(dimethylamino)pyrrolidin-1-yl)-2-methoxyphenylamino)-3-methyl-2-oxo-3,4-dihydropyrimido[4,5-d]pyrimidin-1(2H)-yl)phenyl)acrylamide]
pIC50 [1]: 6.35
pIC50 (EGFR T790M kinase): 7.00 to 8.00
pIC50 (EGFRWT): 7.00 to 8.00
pIC50 (EGFRL858R + T790M): ≥ 8.00
pIC50 (EGFRL858R): ≥ 8.00
pIC50 (EGFRL861Q): ≥ 8.00
